Like-named read-outs stand apart in the source and are kept apart here.

We go through one molecule from patent US20130115624A1, “Methods To Identify Modulators” (Givaudan S.A., priority 2010, published 2013).

For this assay, the system named is Sham Transfected HEK293T/G16gust44 cells. On the procedure:
HEK293T/G16gust44 cells were used; they were formed as described in WO 2004/055048. The host cell line HEK-293T is commercially available from the American Tissue Culture Collection (ATCC), ATCC®#CRL-11268.
On day 0, the HEK293T/G16gust44 cells were plated in 96-well black wall, clear-bottom plates at a density of 15,000 cells per well and grown overnight in growth media (Dulbecco's modified Eagle's medium (DMEM) with 10% (v/v) heat-inactivated fetal bovine serum, 2 mM L-glutamine, 100 units/ml penicillin, 100 μg/ml streptomycin).
On day 1, the media was changed to an antibiotic-free and serum-free DMEM, and the cells were transfected with Lipofectamine 2000 (Invitorgen) according to the manufacturer's recommendations.
Per well of a 96-well plate, 150 ng of vector DNA (TAS2R41 expression vectors from example 1) was diluted in 12.5 μl of DMEM. In a second tube, 0.3 μl of Lipofectamine 2000 was diluted in 12.5 μl of DMEM and incubated for 5 min at room temperature. After the 5 min, both solutions were mixed and incubated for 20 min at RT.
The growth medium in the plate was exchanged with 50 μl of DMEM and 25 μl of the lipofectamine/DNA mixture (formed in the step above) and the cells were incubated for a further 3-4 hours at 37° in a humidified atmosphere. This mixture was then replaced with an antibiotic-free, serum-containing DMEM.
The above procedure was also carried out for HEK293T/G16gust44 cells formed as described in WO 2004/055048 with the exception that no DNA was added during the process (these cells are termed Sham transfected cells);
Each sample (receptors as well as controls) contained a final concentration of 0.02% Dimethyl sulphoxide (DMSO) to allow for comparability of all examples below.
On day 0, the HEK293T cells formed as described in example 2, were seeded in antibiotic-free growth medium (standard DMEM with 10% (v/v) heat-inactivated fetal bovine serum, 2 mM L-glutamine […]) into black wall/clear bottom 96-well plates, coated with poly(ethylenimine) (0.005% v/v) at a concentration of 15,000 cells per well and incubated for 48 hours in humidified atmosphere (37° C., 5% CO2).
Prior to performing the assay, the growth medium was discarded and the cells were left in a humidified atmosphere (37° C., 5% CO2) for 1 hour with 50 μl of loading buffer consisting of 1.5 μM Fluo-4 AM and […] probenicid (Sigma-Aldrich, St. Louis, Mo., US) in DMEM.
Following this the 96-well plate was washed 5 times with 100 μl of assay buffer (130 mM NaCl, 5 mM KCl, 10 mM 4-(2-hydroxyethyl)-1-piperazineethanesulfonic acid (HEPES), 2 mM CaCl2, and 5 mM dextrose, pH 7.4) per well, using an automated plate washer (BioTek).
The plate was then further incubated for 30 minutes at room temperature in the dark to allow for complete de-esterification of the Fluo-4. Afterwards the plate was washed 5 times with 100 μl of assay buffer per well, and reconstituted with 100 μl of assay buffer per well.
Cyclamate solutions ranging in concentration from 250 mM to 800 mM were prepared in assay buffer.
To test receptor activation 20 μl of one of these cyclamate test solutions was added to the assay buffer of at least one well of the 96 well plate. This step was repeated until all cyclamate solutions of differing concentrations had been added to at least one well. Care was taken to ensure that only one cyclamate solution was added per well. The resulting cyclamate concentrations in the well plates ranged in concentration from 25 mM to 80 mM (This is due to the dilution of the cyclamate solution in the assay buffer present in the well).
For assay reading, the plate was placed in a Fluorometric Imaging Plate Reader (FLIPR) (FLIPR-TETRA™, Molecular Devices, Sunnyvale, Calif., US).

Turning to `O=S(=O)(O)NC1CCCCC1` [Cyclamate, cyclamate], the “Cyclamate Average ΔF/F0” value (25 mM cyclamate in well) is reported as 0.1588; the “Cyclamate Average ΔF/F0” value (30 mM cyclamate in well) is on record as 0.1665; the “Cyclamate Average ΔF/F0” value (35 mM cyclamate in well) turned out to be 0.1676; the “Cyclamate Average ΔF/F0” value (40 mM cyclamate in well) amounted to 0.1718; the “Cyclamate Average ΔF/F0” value (45 mM cyclamate in well) was determined as 0.1765; the “Cyclamate Average ΔF/F0” value (50 mM cyclamate in well) was 0.1676. Also, the “Cyclamate Average ΔF/F0” value is, setting by setting: (55 mM cyclamate in well) 0.1682; (60 mM cyclamate in well) 0.1453; (65 mM cyclamate in well) 0.1382; (70 mM cyclamate in well) 0.1529; (75 mM cyclamate in well) 0.1329; (80 mM cyclamate in well) 0.1465.
